# Assay results from EP3154958B1, “PHOSPHATIDYLINOSITOL 3-KINASE INHIBITORS” (Gilead Sciences, Inc., priority 2014, dated 2015).
# Where two headings read alike, the source gives them in different places.
# Key:
# Format in all cases: biochemical
# PI3Kβ = molecular target: T1, PI3Kβ (Homo sapiens, UniProt P42338); assay: TR-FRET enzymatic activity assay, PI3Kβ
# T1 construct: made in house
# Experimental: (§1) The compounds of formula (I) were characterized for their enzymatic activity against the PI3K isoforms. The activities were measured using a time-resolved fluorescence resonance energy transfer (TR-FRET) assay.
# PI3Kδ = molecular target: T2, PI3Kδ (Homo sapiens, UniProt O00329); assay: TR-FRET enzymatic activity assay, PI3Kδ
# T2 construct: made in house
# Experimental: as §1
# PI3Kγ = molecular target: T3, PI3Kγ (Homo sapiens, UniProt P48736); assay: TR-FRET enzymatic activity assay, PI3Kγ
# T3 construct: made in house
# Experimental: as §1
# [1] = recombinant heterodimeric PI3Kβ 25-50 pM, 2× Km ATP, 30 minutes at 25°C
# [2] = recombinant heterodimeric PI3Kδ 25-50 pM, 2× Km ATP, 30 minutes at 25°C
# [3] = recombinant heterodimeric PI3Kγ 2 nM, 2× Km ATP, 30 minutes at 25°C
# T2 sequence (O00329 whole entry): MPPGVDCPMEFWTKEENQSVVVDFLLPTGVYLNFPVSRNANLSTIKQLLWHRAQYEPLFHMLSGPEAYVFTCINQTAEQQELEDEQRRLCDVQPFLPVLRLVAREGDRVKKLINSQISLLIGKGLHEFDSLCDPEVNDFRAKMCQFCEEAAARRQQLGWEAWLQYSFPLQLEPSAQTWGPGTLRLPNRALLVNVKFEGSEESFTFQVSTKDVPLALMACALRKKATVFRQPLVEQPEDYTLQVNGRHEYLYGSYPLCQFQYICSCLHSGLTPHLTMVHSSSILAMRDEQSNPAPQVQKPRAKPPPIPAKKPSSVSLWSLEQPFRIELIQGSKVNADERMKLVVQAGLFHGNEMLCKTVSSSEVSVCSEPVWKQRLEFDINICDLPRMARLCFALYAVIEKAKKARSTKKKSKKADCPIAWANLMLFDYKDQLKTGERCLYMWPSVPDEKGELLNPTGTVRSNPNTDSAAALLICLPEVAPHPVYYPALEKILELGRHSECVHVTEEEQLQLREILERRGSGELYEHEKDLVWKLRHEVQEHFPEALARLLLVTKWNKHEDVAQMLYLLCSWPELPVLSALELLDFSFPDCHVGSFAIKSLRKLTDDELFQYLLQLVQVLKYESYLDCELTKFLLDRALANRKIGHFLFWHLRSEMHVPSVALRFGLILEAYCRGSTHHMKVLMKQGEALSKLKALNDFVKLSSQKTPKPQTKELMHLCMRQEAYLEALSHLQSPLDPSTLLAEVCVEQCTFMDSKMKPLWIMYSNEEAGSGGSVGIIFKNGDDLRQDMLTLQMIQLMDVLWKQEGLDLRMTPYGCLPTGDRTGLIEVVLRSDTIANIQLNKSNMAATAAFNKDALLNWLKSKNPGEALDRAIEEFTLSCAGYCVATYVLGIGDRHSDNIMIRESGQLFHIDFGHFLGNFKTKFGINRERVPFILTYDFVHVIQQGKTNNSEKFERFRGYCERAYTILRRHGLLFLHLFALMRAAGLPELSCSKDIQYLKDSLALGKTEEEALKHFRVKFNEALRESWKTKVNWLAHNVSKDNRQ
# T2 sequence (P27986 whole entry partner): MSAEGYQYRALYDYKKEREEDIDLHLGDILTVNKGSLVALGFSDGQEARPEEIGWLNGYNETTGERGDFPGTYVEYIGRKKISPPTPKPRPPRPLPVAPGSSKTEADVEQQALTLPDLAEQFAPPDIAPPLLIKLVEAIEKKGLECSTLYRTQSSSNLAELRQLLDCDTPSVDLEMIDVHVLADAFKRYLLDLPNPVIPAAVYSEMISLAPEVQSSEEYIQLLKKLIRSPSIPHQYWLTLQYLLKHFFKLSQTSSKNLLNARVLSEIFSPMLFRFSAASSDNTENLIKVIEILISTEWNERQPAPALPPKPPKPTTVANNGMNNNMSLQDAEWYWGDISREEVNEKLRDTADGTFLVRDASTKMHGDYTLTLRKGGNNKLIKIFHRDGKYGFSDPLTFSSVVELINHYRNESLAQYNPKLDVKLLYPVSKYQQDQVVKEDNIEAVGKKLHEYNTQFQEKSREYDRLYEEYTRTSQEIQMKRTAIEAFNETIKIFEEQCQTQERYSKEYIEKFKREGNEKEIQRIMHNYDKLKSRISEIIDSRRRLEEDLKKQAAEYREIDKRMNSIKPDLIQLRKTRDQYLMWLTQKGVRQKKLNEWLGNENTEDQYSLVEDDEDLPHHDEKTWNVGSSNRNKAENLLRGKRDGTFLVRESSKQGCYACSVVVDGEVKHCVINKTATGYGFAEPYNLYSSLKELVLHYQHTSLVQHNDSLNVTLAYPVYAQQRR
# T3 sequence (P48736 whole entry): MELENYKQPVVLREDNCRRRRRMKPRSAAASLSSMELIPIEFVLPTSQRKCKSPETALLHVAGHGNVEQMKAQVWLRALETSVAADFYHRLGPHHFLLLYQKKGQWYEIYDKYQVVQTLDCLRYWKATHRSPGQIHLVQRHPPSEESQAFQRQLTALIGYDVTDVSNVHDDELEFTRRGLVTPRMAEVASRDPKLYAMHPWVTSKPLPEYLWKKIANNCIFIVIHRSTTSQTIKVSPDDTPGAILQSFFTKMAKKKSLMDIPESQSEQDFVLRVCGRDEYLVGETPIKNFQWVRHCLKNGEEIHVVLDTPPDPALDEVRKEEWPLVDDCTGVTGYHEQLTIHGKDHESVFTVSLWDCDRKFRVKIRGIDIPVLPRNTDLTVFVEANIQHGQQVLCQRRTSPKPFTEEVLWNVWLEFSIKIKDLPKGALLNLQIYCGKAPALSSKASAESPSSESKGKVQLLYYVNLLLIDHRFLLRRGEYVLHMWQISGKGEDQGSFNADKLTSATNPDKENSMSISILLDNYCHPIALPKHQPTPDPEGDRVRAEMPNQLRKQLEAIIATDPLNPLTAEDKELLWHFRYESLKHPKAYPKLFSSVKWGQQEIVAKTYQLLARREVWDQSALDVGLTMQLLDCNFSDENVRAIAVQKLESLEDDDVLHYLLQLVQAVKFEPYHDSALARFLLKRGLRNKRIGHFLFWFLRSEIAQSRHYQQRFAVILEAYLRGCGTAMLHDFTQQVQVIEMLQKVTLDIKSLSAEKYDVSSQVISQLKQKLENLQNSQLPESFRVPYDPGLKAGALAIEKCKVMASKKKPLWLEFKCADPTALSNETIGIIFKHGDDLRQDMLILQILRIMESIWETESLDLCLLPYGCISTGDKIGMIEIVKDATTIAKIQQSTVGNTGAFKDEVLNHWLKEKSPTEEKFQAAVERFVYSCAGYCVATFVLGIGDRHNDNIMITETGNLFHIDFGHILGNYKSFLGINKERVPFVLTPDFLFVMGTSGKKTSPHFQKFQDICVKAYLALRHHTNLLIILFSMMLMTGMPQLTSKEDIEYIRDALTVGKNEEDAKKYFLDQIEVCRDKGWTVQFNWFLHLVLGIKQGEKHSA
# T3 sequence (Q8WYR1 whole entry partner): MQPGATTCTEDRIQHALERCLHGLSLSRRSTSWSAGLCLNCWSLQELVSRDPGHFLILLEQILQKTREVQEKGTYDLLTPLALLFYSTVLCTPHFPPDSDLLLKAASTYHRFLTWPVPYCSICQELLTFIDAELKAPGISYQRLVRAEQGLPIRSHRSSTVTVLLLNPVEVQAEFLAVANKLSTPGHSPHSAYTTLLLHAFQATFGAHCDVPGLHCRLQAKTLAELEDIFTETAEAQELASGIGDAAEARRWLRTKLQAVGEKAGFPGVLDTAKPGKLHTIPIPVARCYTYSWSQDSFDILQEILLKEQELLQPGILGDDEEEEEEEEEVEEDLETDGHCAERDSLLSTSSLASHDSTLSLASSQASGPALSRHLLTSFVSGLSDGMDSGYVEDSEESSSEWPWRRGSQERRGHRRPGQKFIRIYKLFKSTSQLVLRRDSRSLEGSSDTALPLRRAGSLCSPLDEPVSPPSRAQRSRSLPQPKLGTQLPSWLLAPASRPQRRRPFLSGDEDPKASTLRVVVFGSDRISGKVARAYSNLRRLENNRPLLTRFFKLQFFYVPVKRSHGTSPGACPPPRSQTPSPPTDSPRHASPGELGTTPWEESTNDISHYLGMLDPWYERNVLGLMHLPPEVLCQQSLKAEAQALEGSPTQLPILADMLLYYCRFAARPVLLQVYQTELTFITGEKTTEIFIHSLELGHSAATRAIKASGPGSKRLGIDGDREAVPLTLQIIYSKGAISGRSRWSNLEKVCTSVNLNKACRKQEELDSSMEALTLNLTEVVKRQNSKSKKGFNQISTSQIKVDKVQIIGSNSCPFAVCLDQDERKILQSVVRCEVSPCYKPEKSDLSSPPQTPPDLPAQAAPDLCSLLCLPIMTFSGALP
# T1 sequence (P42338 whole entry): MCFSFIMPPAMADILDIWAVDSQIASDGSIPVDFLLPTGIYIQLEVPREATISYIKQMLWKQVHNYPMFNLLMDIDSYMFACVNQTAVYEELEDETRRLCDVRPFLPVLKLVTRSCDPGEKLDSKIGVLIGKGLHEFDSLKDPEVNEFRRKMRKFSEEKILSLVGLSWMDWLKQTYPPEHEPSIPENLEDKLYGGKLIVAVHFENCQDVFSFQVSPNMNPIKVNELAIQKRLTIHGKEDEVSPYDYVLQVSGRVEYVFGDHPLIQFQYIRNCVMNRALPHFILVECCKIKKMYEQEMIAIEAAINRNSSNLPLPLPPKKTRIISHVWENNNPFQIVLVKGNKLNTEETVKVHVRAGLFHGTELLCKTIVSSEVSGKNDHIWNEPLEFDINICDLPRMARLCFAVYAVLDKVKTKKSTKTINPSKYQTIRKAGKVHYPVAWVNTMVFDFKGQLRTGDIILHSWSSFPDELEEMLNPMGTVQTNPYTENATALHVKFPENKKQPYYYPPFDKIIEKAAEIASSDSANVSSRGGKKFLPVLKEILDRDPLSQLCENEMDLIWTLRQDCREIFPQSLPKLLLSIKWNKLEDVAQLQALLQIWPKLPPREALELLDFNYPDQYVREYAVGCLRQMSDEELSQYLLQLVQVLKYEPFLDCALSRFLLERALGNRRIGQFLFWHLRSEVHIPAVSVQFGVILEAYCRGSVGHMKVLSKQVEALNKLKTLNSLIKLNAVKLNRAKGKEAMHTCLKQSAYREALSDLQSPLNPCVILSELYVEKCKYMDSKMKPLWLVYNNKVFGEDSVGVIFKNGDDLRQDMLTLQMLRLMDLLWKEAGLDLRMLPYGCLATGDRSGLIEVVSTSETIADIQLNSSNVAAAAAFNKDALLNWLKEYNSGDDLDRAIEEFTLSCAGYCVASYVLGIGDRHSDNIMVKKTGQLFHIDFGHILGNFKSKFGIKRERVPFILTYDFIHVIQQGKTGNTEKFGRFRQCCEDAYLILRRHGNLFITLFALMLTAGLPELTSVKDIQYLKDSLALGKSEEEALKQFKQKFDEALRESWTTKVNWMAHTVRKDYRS
# T1 sequence (P27986 whole entry partner): as the sequence (P27986 whole entry partner) above
SMILES,IC50 (PI3Kβ),IC50 (PI3Kδ),IC50 (PI3Kγ),IC50 (PI3Kβ; [1]),IC50 (PI3Kδ; [2]),IC50 (PI3Kγ; [3])
"Cc1nc(N)nc(N[C@H](c2nc3cccc(Cl)c3c(=O)n2C2[C@H]3CNC[C@@H]23)C2CC2)c1C#N (stereo in doubt) [Compound 14, 4-(((1S)-(3-((1R,5S)-3-azabicyclo[3.1.0]hexan-6-yl)-5-chloro-4-oxo-3,4-dihydroquinazolin-2-yl)(cyclopropyl)methyl)amino)-2-amino-6-methylpyrimidine-5-carbonitrile]",0.4 nM,0.3 nM,480 nM,–,–,–
"N#Cc1c(N)nc(N)nc1N[C@H](c1nc2cccc(Cl)c2c(=O)n1C1[C@H]2CNC[C@@H]12)C1CC1 (stereo in doubt) [Compound 15, 4-(((1S)-(3-((1R,5S)-3-azabicyclo[3.1.0]hexan-6-yl)-5-chloro-4-oxo-3,4-dihydroquinazolin-2-yl)(cyclopropyl)methyl)amino)-2,6-diaminopyrimidine-5-carbonitrile]",2 nM,0.6 nM,650 nM,–,–,–
"Cc1nc(N)nc(N[C@@H](C)c2nc3c(F)ccc(Cl)c3c(=O)n2C2[C@H]3CNC[C@@H]23)c1C#N (stereo in doubt) [Compound 16, 4-(((1S)-1-(3-((1R,5S)-3-azabicyclo[3.1.0]hexan-6-yl)-5-chloro-8-fluoro-4-oxo-3,4-dihydroquinazolin-2-yl)ethyl)amino)-2-amino-6-methylpyrimidine-5-carbonitrile]",–,–,–,2 nM,6 nM,2600 nM
"C[C@H](Nc1nc(N)nc(N)c1C#N)c1nc2c(F)ccc(Cl)c2c(=O)n1C1[C@H]2CNC[C@@H]12 (stereo in doubt) [Compound 17, 4-(((1S)-1-(3-((1R,5S)-3-azabicyclo[3.1.0]hexan-6-yl)-5-chloro-8-fluoro-4-oxo-3,4-dihydroquinazolin-2-yl)ethyl)amino)-2,6-diaminopyrimidine-5-carbonitrile]",–,–,–,3 nM,4 nM,2800 nM
"C[C@H](Nc1nc(N)nc(N)c1C#N)c1nc2cccc(Cl)c2c(=O)n1C1[C@H]2CNC[C@@H]12 (stereo in doubt) [Compound 19, 4-(((1S)-1-(3-((1R,5S)-3-azabicyclo[3.1.0]hexan-6-yl)-5-chloro-4-oxo-3,4-dihydroquinazolin-2-yl)ethyl)amino)-2,6-diaminopyrimidine-5-carbonitrile]",3 nM,1 nM,1200 nM,–,–,–
"C[C@H](Nc1nc(N)nc(N)c1C#N)c1nc2cccc(Cl)c2c(=O)n1[C@@H]1CCCNC1 (stereo in doubt) [Compound 27, 2,4-diamino-6-(((S)-1-(5-chloro-4-oxo-3-((R)-piperidin-3-yl)-3,4-dihydroquinazolin-2-yl)ethyl)amino)pyrimidine-5-carbonitrile]",–,–,–,5600 nM,830 nM,> 10000 nM
"N#Cc1c(N)nc(N)nc1N1CCC[C@@H]1c1nc2cccc(F)c2c(=O)n1N1CCN(Cc2ccccc2)CC1 (stereo in doubt) [Compound 124, (R)-2,4-diamino-6-(2-(3-(4-benzylpiperazin-1-yl)-5-fluoro-4-oxo-3,4-dihydroquinazolin-2-yl)pyrrolidin-1-yl)pyrimidine-5-carbonitrile]",–,–,–,1300 nM,390 nM,> 10000 nM
"CN1CCN(n2c([C@@H](Nc3nc(N)nc(N)c3C#N)C3CC3)nc3cccc(Cl)c3c2=O)CC1 [Compound 1, (S)-2,4-diamino-6-(((5-chloro-3-(4-methylpiperazin-1-yl)-4-oxo-3,4-dihydroquinazolin-2-yl)(cyclopropyl)methyl)amino)pyrimidine-5-carbonitrile]",–,–,–,30 nM,21 nM,1740 nM
"CN1CCN(n2c([C@@H](Nc3nc(N)nc(N)c3Cl)C3CC3)nc3cccc(Cl)c3c2=O)CC1 [Compound 2, (S)-5-chloro-2-(cyclopropyl((2,6-diamino-5-chloropyrimidin-4-yl)amino)methyl)-3-(4-methylpiperazin-1-yl)quinazolin-4(3H)-one]",–,–,–,950 nM,260 nM,> 10000 nM
"C[C@H](Nc1nc(N)nc(N)c1C#N)c1nc2cccc(Cl)c2c(=O)n1N1CCN(Cc2ccccc2)CC1 [Compound 3, (S)-2,4-diamino-6-((1-(3-(4-benzylpiperazin-1-yl)-5-chloro-4-oxo-3,4-dihydroquinazolin-2-yl)ethyl)amino)pyrimidine-5-carbonitrile]",–,–,–,8 nM,12 nM,580 nM
"C[C@H](Nc1nc(N)nc(N)c1C#N)c1nc2cccc(Cl)c2c(=O)n1C1C[C@H]2CC[C@@H](C1)N2C (stereo partly drawn) [Compound 4, 2,4-diamino-6-(((1S)-1-(5-chloro-3-((1R,5S)-8-methyl-8-azabicyclo[3.2.1]octan-3-yl)-4-oxo-3,4-dihydroquinazolin-2-yl)ethyl)amino)pyrimidine-5-carbonitrile]",–,–,–,290 nM,82 nM,> 10000 nM
"C[C@H](Nc1ncnc(N)c1C#N)c1nc2cccc(Cl)c2c(=O)n1N1CCN(C)CC1 [Compound 5, (S)-4-amino-6-((1-(5-chloro-3-(4-methylpiperazin-1-yl)-4-oxo-3,4-dihydroquinazolin-2-yl)ethyl)amino)pyrimidine-5-carbonitrile]",–,–,–,190 nM,19 nM,> 10000 nM
"C[C@H](Nc1ncnc(N)c1C#N)c1nc2cccc(Cl)c2c(=O)n1C1CCN(C)CC1 [Compound 6, (S)-4-amino-6-((1-(5-chloro-3-(1-methylpiperidin-4-yl)-4-oxo-3,4-dihydroquinazolin-2-yl)ethyl)amino)pyrimidine-5-carbonitrile]",–,–,–,460 nM,68 nM,> 10000 nM
"Cc1nc(N)nc(N[C@@H](C)c2nc3cccc(Cl)c3c(=O)n2[C@H]2CCCNCC2)c1C#N [Compound 10, 2-amino-4-(((S)-1-(3-((S)-azepan-4-yl)-5-chloro-4-oxo-3,4-dihydroquinazolin-2-yl)ethyl)amino)-6-methylpyrimidine-5-carbonitrile]",–,–,–,–,–,> 10000 nM
"Cc1nc(N)nc(N[C@@H](C)c2nc3cccc(Cl)c3c(=O)n2[C@@H]2CCCNCC2)c1C#N [Compound 11, 2-amino-4-(((S)-1-(3-((R)-azepan-4-yl)-5-chloro-4-oxo-3,4-dihydroquinazolin-2-yl)ethyl)amino)-6-methylpyrimidine-5-carbonitrile]",–,–,–,–,–,> 10000 nM
"C[C@H](Nc1nc(N)nc(N)c1C#N)c1nc2c(Cl)ccc(Cl)c2c(=O)n1N1CCNCC1 [Compound 53, (S)-2,4-diamino-6-((1-(5,8-dichloro-4-oxo-3-(piperazin-1-yl)-3,4-dihydroquinazolin-2-yl)ethyl)amino)pyrimidine-5-carbonitrile]",27 nM,6 nM,–,4 nM,3 nM,–
"C[C@H](NC(=O)c1nccnc1N)c1nc2cccc(Cl)c2c(=O)n1N1CCNCC1 [Compound 56, (S)-3-amino-N-(1-(5-chloro-4-oxo-3-(piperazin-1-yl)-3,4-dihydroquinazolin-2-yl)ethyl)pyrazine-2-carboxamide]",–,–,–,21 nM,230 nM,–
"C[C@H](Nc1nc(N)nc(N)c1C#N)c1nc2cccc(Cl)c2c(=O)n1N1CCNCC1 [Compound 57, (S)-2,4-diamino-6-((1-(5-chloro-4-oxo-3-(piperazin-1-yl)-3,4-dihydroquinazolin-2-yl)ethyl)amino)pyrimidine-5-carbonitrile]",–,–,–,–,–,710 nM
